Experimental data as given in the supplement of paper PMC10307832.

How the values were obtained:
Assay in all cases: relative viability (nuclei count vs DMSO), 5 days (fraction); higher = more cells survive
[1] = compound: C[C@]12O[C@H](C[C@]1(O)CO)n1c3ccccc3c3c4c(c5c6ccccc6n2c5c31)CNC4=O [Lestaurtinib] + Nc1nc2[nH]cc(CCc3ccc(C(=O)N[C@@H](CCC(=O)O)C(=O)O)cc3)c2c(=O)[nH]1 [Pemetrexed] (partner 0.2 µM)
Procedure, shortened: (§1)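 Relative viability is defined as nuclei in treated wells over nuclei in vehicle wells. Duplicate plates were run and medians reported. Lung cancer cell lines in 1536-well plates were dosed by pin tool one day after seeding, with one drug or with a fixed anchor-drug dose plus five library-drug doses (not always all listed) in √10 steps, and nuclei were counted after 5 days.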

Lestaurtinib + Dasatinib = compound: C[C@]12O[C@H](C[C@]1(O)CO)n1c3ccccc3c3c4c(c5c6ccccc6n2c5c31)CNC4=O [Lestaurtinib] + Cc1nc(Nc2ncc(C(=O)Nc3c(C)cccc3Cl)s2)cc(N2CCN(CCO)CC2)n1 [Dasatinib] (partner 0.075 µM)
Procedure, shortened: as §1

TPCA-1 + Foretinib = compound: C1=CC(=CC=C1C2=CC(=C(S2)NC(=O)N)C(=O)N)F [TPCA-1] + COc1cc2c(Oc3ccc(NC(=O)C4(C(=O)Nc5ccc(F)cc5)CC4)cc3F)ccnc2cc1OCCCN1CCOCC1 [Foretinib] (partner 0.25 µM)
Procedure, shortened: as §1

TPCA-1 + Pemetrexed = compound: C1=CC(=CC=C1C2=CC(=C(S2)NC(=O)N)C(=O)N)F [TPCA-1] + Nc1nc2[nH]cc(CCc3ccc(C(=O)N[C@@H](CCC(=O)O)C(=O)O)cc3)c2c(=O)[nH]1 [Pemetrexed] (partner 0.2 µM)
Procedure, shortened: as §1

| Cell Line | relative viability ([1]; first compound 0.005 µM) | relative viability ([1]; first compound 0.01581 µM) | relative viability ([1]; first compound 0.05 µM) | relative viability ([1]; first compound 0.1581 µM) | relative viability ([1]; first compound 0.5 µM) | relative viability (Lestaurtinib + Dasatinib; first compound 0.005 µM) | relative viability (Lestaurtinib + Dasatinib; first compound 0.01581 µM) | relative viability (Lestaurtinib + Dasatinib; first compound 0.05 µM) | relative viability (Lestaurtinib + Dasatinib; first compound 0.1581 µM) | relative viability (Lestaurtinib + Dasatinib; first compound 0.5 µM) | relative viability (TPCA-1 + Foretinib; first compound 0.04 µM) | relative viability (TPCA-1 + Foretinib; first compound 0.1265 µM) | relative viability (TPCA-1 + Foretinib; first compound 0.4 µM) | relative viability (TPCA-1 + Foretinib; first compound 1.265 µM) | relative viability (TPCA-1 + Foretinib; first compound 4 µM) | relative viability (TPCA-1 + Pemetrexed; first compound 0.04 µM) | relative viability (TPCA-1 + Pemetrexed; first compound 0.1265 µM) | relative viability (TPCA-1 + Pemetrexed; first compound 0.4 µM) | relative viability (TPCA-1 + Pemetrexed; first compound 1.265 µM) | relative viability (TPCA-1 + Pemetrexed; first compound 4 µM) |
| --- | --- | --- | --- | --- | --- | --- | --- | --- | --- | --- | --- | --- | --- | --- | --- | --- | --- | --- | --- | --- |
| NCI-H2405 | 1.01 | 1.25 | 1.03 | 0.887 | 0.374 | 0.199 | 0.211 | 0.186 | 0.196 | 0.17 | 1.03 | 1.05 | 1.11 | 0.991 | 1.03 | 1.09 | 1.03 | 1.02 | 1.02 | 0.914 |
| NCI-H3122 | 0.227 | 0.205 | 0.193 | 0.216 | 0.187 | 0.881 | 0.871 | 0.869 | 1.15 | 0.598 | 1.06 | 0.914 | 1.02 | 0.928 | 0.909 | 0.203 | 0.23 | 0.222 | 0.191 | 0.19 |
| PC-3 [JPC-3] | 0.747 | 1.5 | 0.918 | 0.94 | 0.613 | 1.01 | 1.02 | 0.843 | 0.857 | 0.483 | 1.03 | 1.08 | 0.968 | 0.984 | 1.02 | 1.17 | 1.03 | 1.22 | 1.09 | 0.535 |
| PC-14 | 0.153 | 0.131 | 0.154 | 0.154 | 0.0792 | 0.294 | 0.286 | 0.231 | 0.13 | 0.0741 | 1.01 | 0.916 | 0.957 | 1.01 | 0.79 | 0.136 | 0.128 | 0.133 | 0.134 | 0.138 |
| RERF-LC-KJ | 0.482 | 0.496 | 0.417 | 0.455 | 0.351 | 0.902 | 0.908 | 0.526 | 0.648 | 0.316 | 0.904 | 0.997 | 0.883 | 0.836 | 0.774 | 0.473 | 0.474 | 0.469 | 0.524 | 0.488 |
| SK-LU-1 | 1 | 0.802 | 0.476 | 0.457 | 0.284 | 0.155 | 0.168 | 0.146 | 0.161 | 0.126 | 0.806 | 0.736 | 0.876 | 0.617 | 0.377 | 1.03 | 0.94 | 0.986 | 0.831 | 0.73 |
| SK-MES-1 | 0.982 | 0.918 | 0.506 | 0.413 | 0.26 | 0.396 | 0.333 | 0.426 | 0.206 | 0.159 | 0.997 | 0.847 | 0.813 | 0.599 | 0.609 | 0.925 | 0.808 | 0.91 | 0.769 | 0.631 |
| SW 900 | 0.517 | 0.538 | 0.487 | 0.532 | 0.441 | 0.739 | 0.702 | 0.445 | 0.57 | 0.32 | 0.894 | 0.71 | 0.841 | 0.958 | 0.789 | – | – | 0.492 | 0.495 | 0.468 |
| SW 1573 | 1.03 | 0.86 | 0.666 | 0.303 | 0.119 | 0.605 | 0.454 | 0.246 | 0.162 | 0.0823 | 0.6 | 0.811 | 1.03 | 0.964 | 0.866 | 0.792 | 0.823 | 0.844 | 0.924 | 0.715 |
